From the SangsterLogP compilation come the findings set out here.

The data set is described as follows: method code SF-AS, from PMID: 6686445. The settings on record: pH 7.4.
Regarding `CSCN1C(=O)CN=C(c2ccccc2)c2cc(Cl)ccc21`, the logD was 3.32.

For the molecule `CN1C(=O)CN=C(c2c(Cl)cccc2Cl)c2cc(Cl)ccc21`, the logD was determined as 3.04.

In the case of `COCN1C(=O)CN=C(c2ccccc2)c2cc([N+](=O)[O-])ccc21`, the logD came out at 2.05.

Turning to `Cc1ccccc1C1=NCC(=O)Nc2ccc(Cl)cc21`, the pH-dependent lipophilicity (logD) stood at 3.12.

The molecule `O=C1CN=C(c2ccc(F)cc2)c2cc(Cl)ccc2N1` showed a logD of 2.9.

`COc1cccc(C2=NCC(=O)Nc3ccc(Cl)cc32)c1` returned a logD of 3.14.

Regarding `O=C1CN=C(c2ccccc2)c2cc([N+](=O)[O-])ccc2N1CC(O)CO` (stereo not given), the log distribution coefficient (logD) came out at 0.96.

`COCN1C(=O)CN=C(c2ccccc2)c2cc(Cl)ccc21`: the logD was 2.86.

As for `CSc1ccc2c(c1)C(c1ccccc1)=NCC(=O)N2C`, the pH-dependent lipophilicity (logD) turned out to be 2.95.

For `COCN1C(=O)CN=C(c2ccccc2F)c2cc(N)ccc21`, the logD turned out to be 1.31.

For `COc1ccc(C2=NCC(=O)N(C)c3ccc(Cl)cc32)cc1`, the logD was 3.15.

As to `Cc1ccc2c(c1)C(c1ccccc1)=NCC(=O)N2`, the logD turned out to be 2.62.

In turn, `O=C1CN=C(c2ccccc2F)c2cc(Cl)ccc2N1` yielded a logD of 2.7.

For `CN1C(=O)CN=C(c2ccccc2F)c2cc(Cl)ccc21`, the logD was 2.75.

Molecule `COc1ccccc1C1=NCC(=O)Nc2ccc(Cl)cc21` yielded a pH-dependent lipophilicity (logD) of 2.63.

Molecule `COCN1C(=O)CN=C(c2ccccc2)c2cc(N)ccc21` came in with a logD of 1.32.

In turn, `COCN1C(=O)C(O)N=C(c2ccccc2)c2cc(N)ccc21` (stereo not given) had a logD of 0.75.

Take `C[C@@H]1N=C(c2ccccc2Cl)c2cc([N+](=O)[O-])ccc2NC1=O`: the logD was determined as 2.72.

`CN1C(=O)CN=C(c2ccccc2F)c2cc(N)ccc21` showed a logD of 1.3.

`O=C1CN=C(c2cccc(C(F)(F)F)c2)c2ccccc2N1` returned a logD of 3.19.

`O=C1CN=C(c2ccccc2F)c2cc(Cl)ccc2N1CC(O)CO` (stereo not given) showed a logD of 1.51.

For the molecule `CC1N=C(c2ccccc2Cl)c2cc(Cl)ccc2N(C)C1=O` (stereo not given), the logD came out at 3.4.

`O=C1CN=C(c2ccccc2[N+](=O)[O-])c2cc([N+](=O)[O-])ccc2N1` came in with a pH-dependent lipophilicity (logD) of 1.61.

`N#Cc1ccc2c(c1)C(c1ccccc1)=NCC(=O)N2`: the logD worked out at 1.82.

Molecule `O=C1CN=C(c2ccccc2)c2cc(C(F)(F)F)ccc2N1` displayed a logD of 3.1.

As to `O=C1CN=C(c2ccccc2Br)c2cc(Cl)ccc2N1`, the logD came out at 3.17. The logD values of the last two molecules are within 0.2 log units of each other.

`COc1ccc2c(c1)C(c1ccccc1)=NCC(=O)N2` showed a logD of 2.24.

Molecule `CN1C(=O)CN=C(c2ccc(Cl)cc2)c2cc(F)ccc21` yielded a logD of 3.1.

In the case of `CN1C(=O)CN=C(c2ccccc2)c2cc(N)ccc21`, the logD worked out at 1.46.

`CC(=O)c1ccc2c(c1)C(c1ccccc1F)=NCC(=O)N2`: the log distribution coefficient (logD) came to 1.75.

Molecule `CCc1ccc2c(c1)C(c1ccccc1F)=NCC(=O)N2` gave a logD of 2.92.

`CCN1C(=O)CN=C(c2ccccc2)c2cc(N)ccc21` registered a logD of 1.81.

`Cc1ccccc1C1=NCC(=O)N(C)c2ccc(Cl)cc21` returned a logD of 3.03.

Take `CSc1ccccc1C1=NCC(=O)Nc2ccc(Cl)cc21`: the pH-dependent lipophilicity (logD) came to 2.99. This logD and that of the molecule before are within 0.2 log units of each other.

The molecule `O=C1CN=C(c2ccccc2)c2ccccc2N1` registered a logD of 2.18.

`O=C1CN=C(c2c(F)cccc2F)c2cc(Cl)ccc2N1`: the logD stood at 2.68.

In turn, `O=C1CN=C(c2ccccc2C(F)(F)F)c2cc([N+](=O)[O-])ccc2N1` showed a logD of 2.51. The logD values of the last two molecules are within 0.2 log units of each other.

`O=C1CN=C(c2ccccc2C(F)(F)F)c2ccccc2N1` returned a logD of 2.47.

For `O=C1CN=C(c2ccccc2F)c2cc([N+](=O)[O-])ccc2N1`, the logD is 2.15.

Take `O=C1CN=C(c2ccccc2F)c2ccccc2N1`: the logD was determined as 2.38.

In the case of `O=C1CN=C(c2ccccc2Cl)c2cc(Cl)ccc2N1`, the logD amounted to 3.15.

In turn, `O=C1CN=C(c2ccc(C(F)(F)F)cc2)c2ccccc2N1` gave a logD of 3.34. The logD values of the last two molecules are within 0.2 log units of each other.

`CSCN1C(=O)CN=C(c2ccccc2)c2cc(N)ccc21` had a logD of 1.92.

In turn, `CN1C(=O)CN=C(c2ccccc2F)c2cc(I)ccc21` yielded a logD of 3.14.

For the molecule `O=C1CN=C(c2ccccc2)c2cc(F)ccc2N1`, the logD amounted to 2.32.

With `CCN1C(=O)CN=C(c2ccccc2)c2cc(Cl)ccc21`, the logD amounted to 3.21.

In turn, `O=C1CN=C(c2c(F)cccc2F)c2ccc(Cl)cc2N1` gave a logD of 2.88.

In the case of `CN1C(=O)CN=C(c2ccccc2Cl)c2cc(Cl)ccc21`, the logD came out at 3.12.

Molecule `O=C1CN=C(c2ccccc2F)c2cc(Cl)c(Cl)cc2N1` gave a logD of 3.63.

On to `COCN1C(=O)CN=C(c2ccccc2Cl)c2cc(Cl)ccc21`, for which the logD was determined as 3.23.
